Data reported in patent US20130303539A1, “COMPOUNDS WITH TRPV4 ACTIVITY, COMPOSITIONS AND ASSOCIATED METHODS THEREOF” (priority 2012, published 2013).

Columns and labels:
[1] = system: retinal neurons (RGCs) and glia (Müller cells); assay: Hypotonic stimuli: cell swelling (change in cell area) and [Ca++]i; assay type: cell-based; details: osmolarity lowered from 300 mOsm to 190 mOsm
From the text: FIG. 18A illustrates the effect of hypotonic stimuli on cell swelling as measured by change in cell area. Hypotonic stimuli were generated by replacing extracellular sodium levels to lower osmolarity from 300 mOsm to 190 mOsm.

MB model of glaucoma = assay: IOP time course after a single eye drop in the MB model of glaucoma; assay type: in vivo, mouse
Protocol: Specifically, microbeads (MBs) were injected into the anterior chamber of a mouse eye as described in Example 2 with PBS-injected eyes used as controls. Compound 1 (10 mg/kg body weight) (or PBS vehicle) was injected intraperitoneally (IP). […] IOP was measured in mice between 10:00 AM and 1:00 PM with the TonoLab rebound tonometer (Colonial Medical Supply, Franconia, NH/Tyolat, Helsinki, Finland). Mice were sedated with IP injection of Avertin with final amount calculated by weight (e.g., 0.5 ml for 21-24 g animals). Animals were placed on a jack stand platform and the tonolab was clamped on a ring stand and centered onto the mid-cornea. During measurements animal were neither restrained nor touched. Each eye was measured twenty consecutive times, the highest and lowest values were discarded and the values were averaged.
FIG. 9 illustrates the short-term effects of a single dose of Compound 1 (eye drop) in the MB model of glaucoma. IOP was measured as described in Example 3 at the indicated time points after receiving a drop of Compound 1. Compound 1 reduced IOP beginning at 1 hour after dosing and continued through 6 hours after dosing.
FIG. 10 illustrates a time course of Compounds 1, 2, 5 and Compound 2-HCl as well as a positive control compound, timolol, with regard to inhibition of IOP. The experiment was conducted as described in Example 9. Each of the TRPV4 antagonists reduced IOP with a similar time course. Specifically, Compounds 1, 2, 5 and Compound 2-HCl reduced IOP for at least 6 hours after dosing.
FIG. 11 illustrates a time course of Compound 2-HCl activity. The experiment was conducted as described in Example 9. […] 2
FIG. 12 illustrates a comparison of the time course of Compound 2-HCl and Compound 5. The experiment was conducted as described in Example 9.

retinal ganglion cells [2] = assay: In vivo intraocular injection of TRPV4 agonist GSK, NeuN+ RGC count; details: 100-300 nM injected intraocularly, retinas isolated after 48 hours
Protocol: In this experiment, GSK (100-300 nM) was injected intraocularly with a Hamilton syringe. Retinas were isolated after 48 hours, fixed and labeled with the RGC marker antibody NeuN. NeuN-immunopositive somata in the ganglion cell layer, shown in the panel on the right, were counted. The bar graph represents quantification of NeuN^+ cells in the indicated experimental groups.

TRPV4 [3] = target: T1, TRPV4 (Mus musculus, UniProt Q9EPK8); assay: AGB cation influx into retinal cells (anti-AGB antibody); assay type: cell-based; parameters: these two cell types express TRPV4 channels in the mouse retina; from tissue; host or cells: mouse retina; details: mouse retina
Protocol: FIG. 16 illustrates the effect of the TRPV4 agonist GSK on cation influx into mouse retinal cells of the mouse retina. The influx was determined using the anti-AGB antibody, as described by Marc RE (J Comp Neurol 407(1): 47-64, 1999). AGB is a membrane permeant cation that can flow through most known cation channels. Using an anti-AGB antibody, it can be determined where the cation flux occurs and, therefore, which cells are activated.

TRPV4 [4] = target: T1, TRPV4; assay: TRPV4 agonist GSK-evoked [Ca++]i in retinal Müller glial cells; assay type: cell-based; parameters: endogenous in cells; host or cells: retinal Müller glial cells
TRPV4 [5] = target: T2, TRPV4 (Homo sapiens, UniProt Q9HBA0); assay: Calcium imaging (fura-2) in human trabecular meshwork cells; assay type: cell-based; details: bath application 100 nM, human TM cells, room temperature
T2 construct: endogenous in cells; host or cells: primary human trabecular meshwork cells from trabeculectomy tissue
Protocol: Pieces of tissue were isolated from a trabeculectomy. Trabecular meshwork cells (TM) were kept in cold L15 medium and then loaded with Fura-2 (10 μm) for 1 hour. Fibroblast-shaped cells were imaged from a TM chunk (˜500 μm×500 μm) with a 40× water immersion objective. The sampling rate was at 6 second intervals. Krebs Ringer Bicarbonate Recording buffer (7.4, 284 mOsm) was prepared as reported by Anthony et al., 1998, IOVS; Prostaglandin F2α receptors in the human trabecular meshwork.
Calcium imaging was performed on TM cells isolated from human patients. In brief, dissociated human TM cells embedded within the tissue were dissociated and plated on concanavalin A-coated (0.2 mg/ml; Sigma) coverslips, loaded with fura-2 AM ([…]; Invitrogen Life Technologies) for 15 min-1 hour and washed for 10 min in dye-free L-15 medium. […] Fluorescence emission was high-pass filtered at 510 nm and captured with cooled digital CCD cameras (HQ2, Photometrics). […] Fluorescence imaging was performed on regions of interest (ROIs) encompassing the TM cell somata, typically at 3×3 binning. Background fluorescence was measured in similarly sized ROIs in neighboring areas devoid of cells. After sequential image acquisition (0.167-0.5 Hz) of cell fluorescence at 340/380 nm, the background was subtracted. […]

retinal ganglion cells [6] = assay: TUNEL assay of apoptotic cell death in retina; assay type: cell-based
Protocol: Terminal deoxynucleotidyl transferase-mediated dUTP-biotin nick end labeling (TUNEL) is a common method for detecting fragmentation that results from apoptotic signaling cascades. Retinas were embedded, cryosectioned, and processed for the TUNEL assay following the protocol by Gavrieli et al. (1992). After 30 min. rehydration in 70% ethanol, 2×5 min. rinses in PBS and 1% Triton-X in 1% citrate buffer (pH 7.3), the slides were subjected to a final rinse in PBS. Slides were then incubated for 30 min. in the reaction buffer (30 mM Trizma-HCl, 140 mM Na^+ cacodylate, 1.0 mM CaCl2, 0.2% Triton X-100, pH 7.2). Positive controls were treated with DNAse I (Roche Diagnostics; Branford, Conn.; 10 U/ml) in the reaction buffer. Next, slides were treated for 1 hour with 0.03 units/pi terminal transferase and 4 μM biotin-16-dUTP (Roche Diagnostics). The reaction was terminated in 30 mM Na+ citrate, 300 mM NaCl and 0.2% Triton X-100 in PBS (5 min.) and rinsed in PBS (2×5 min), exposed to 1% bovine serum albumin in PBS for 20 min and rinsed. Apoptotic cells were visualized with a confocal microscope (Zeiss LSM510) and categorized by size. […] This was blocked by RuR and by the TRPV4 antagonist Compound 1.

Müller cells = assay: Arachidonic acid-induced [Ca2+]i in Müller cells; assay type: cell-based; details: 10 μM, Müller cells
Protocol: This response is blocked by Compound 1 (1 μM).

T1 sequence (Q9EPK8 whole entry): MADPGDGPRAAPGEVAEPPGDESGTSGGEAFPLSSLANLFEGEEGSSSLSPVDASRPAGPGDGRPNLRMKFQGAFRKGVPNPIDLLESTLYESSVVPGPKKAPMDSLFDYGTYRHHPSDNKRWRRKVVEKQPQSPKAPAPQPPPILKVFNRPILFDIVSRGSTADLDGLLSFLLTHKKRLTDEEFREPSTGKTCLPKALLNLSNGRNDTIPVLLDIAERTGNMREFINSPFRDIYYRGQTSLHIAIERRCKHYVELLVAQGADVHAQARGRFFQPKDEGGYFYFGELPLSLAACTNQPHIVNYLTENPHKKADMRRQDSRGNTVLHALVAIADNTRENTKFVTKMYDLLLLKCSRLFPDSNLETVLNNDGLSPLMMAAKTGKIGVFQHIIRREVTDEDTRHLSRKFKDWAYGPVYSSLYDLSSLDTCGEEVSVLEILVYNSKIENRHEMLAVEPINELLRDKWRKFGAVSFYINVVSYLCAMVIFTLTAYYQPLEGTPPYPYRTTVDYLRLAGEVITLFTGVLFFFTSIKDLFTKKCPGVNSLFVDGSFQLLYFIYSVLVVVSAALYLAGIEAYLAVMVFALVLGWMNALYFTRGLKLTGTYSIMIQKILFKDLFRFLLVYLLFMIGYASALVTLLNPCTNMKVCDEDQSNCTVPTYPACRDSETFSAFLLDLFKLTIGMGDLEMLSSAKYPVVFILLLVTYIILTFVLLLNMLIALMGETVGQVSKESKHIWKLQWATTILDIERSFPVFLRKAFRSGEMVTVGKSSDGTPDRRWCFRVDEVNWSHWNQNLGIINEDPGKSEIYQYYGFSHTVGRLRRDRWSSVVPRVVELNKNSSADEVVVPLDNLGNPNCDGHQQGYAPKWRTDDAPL
T2 sequence (Q9HBA0 whole entry): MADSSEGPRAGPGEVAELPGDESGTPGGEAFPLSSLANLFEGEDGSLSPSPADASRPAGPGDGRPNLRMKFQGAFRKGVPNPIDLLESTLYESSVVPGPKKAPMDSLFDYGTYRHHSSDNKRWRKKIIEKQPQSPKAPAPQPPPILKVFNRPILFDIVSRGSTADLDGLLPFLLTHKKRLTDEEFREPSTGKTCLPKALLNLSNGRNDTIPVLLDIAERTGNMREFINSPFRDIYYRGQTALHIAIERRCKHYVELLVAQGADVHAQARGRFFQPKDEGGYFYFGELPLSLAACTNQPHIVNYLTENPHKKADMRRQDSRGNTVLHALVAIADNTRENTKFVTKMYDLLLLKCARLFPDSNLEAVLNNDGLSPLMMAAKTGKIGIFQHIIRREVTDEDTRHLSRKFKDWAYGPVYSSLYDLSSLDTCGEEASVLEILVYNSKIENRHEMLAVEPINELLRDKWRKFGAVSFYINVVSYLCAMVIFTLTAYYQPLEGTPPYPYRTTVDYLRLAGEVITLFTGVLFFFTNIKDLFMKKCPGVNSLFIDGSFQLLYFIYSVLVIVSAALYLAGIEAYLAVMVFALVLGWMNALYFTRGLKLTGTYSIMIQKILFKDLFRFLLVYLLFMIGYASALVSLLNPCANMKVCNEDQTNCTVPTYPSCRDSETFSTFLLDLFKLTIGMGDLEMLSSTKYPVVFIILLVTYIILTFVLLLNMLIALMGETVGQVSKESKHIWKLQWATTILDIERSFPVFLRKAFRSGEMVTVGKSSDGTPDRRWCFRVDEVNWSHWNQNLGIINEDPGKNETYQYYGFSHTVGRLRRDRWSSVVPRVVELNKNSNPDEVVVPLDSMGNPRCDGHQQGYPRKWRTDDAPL

CC(=O)OCOC(=O)CN(CC(=O)OCOC(C)=O)c1ccccc1OCCOc1ccccc1N(CC(=O)OCOC(C)=O)CC(=O)OCOC(C)=O [BAPTA-AM, reference compound]
cell swelling (change in cell area) [1]: significantly reduced

Cc1c(C(=O)Nc2cccc(C(=O)OC(C)C)c2)cc(-c2ccccc2)n1CCCN1CCOCC1.Cl [Compound 2-HCl, iso-propyl 3-(2-methyl-1-(3-morpholinopropyl)-5-phenyl-1H-pyrrole-3-carboxamido)benzoate hydrochloride]
time of maximal inhibition of IOP after dosing (MB model of glaucoma; single dose eye drop): 6 h
time until IOP reached pre-dose levels (MB model of glaucoma; single dose eye drop, post-dosing): 33 h

CC(C)C[C@H](NC(=O)c1cc2ccccc2s1)C(=O)N1CCN(C(=O)[C@H](CO)NS(=O)(=O)c2ccc(Cl)cc2Cl)CC1 [GSK1016790A, reference compound]
number of retinal ganglion cells (NeuN+ somata), agonist effect (retinal ganglion cells [2]): substantially reduces the number of retinal ganglion cells
number of AGB+ cells (cation influx), agonist effect (TRPV4 [3]): increased the number of AGB^+ retinal ganglion cells and Müller glial cells
intracellular calcium concentration [Ca++]i, agonist effect (TRPV4 [4]): evokes sustained increases in intracellular calcium concentration
340/380 fluorescence ratio (intracellular calcium concentration [Ca++]i) (TRPV4 [5]): increased 340/380 fluorescence ratio
death of retinal ganglion cells (increased TUNEL staining), agonist effect (retinal ganglion cells [6]; 100 nM): induced death of retinal ganglion cells

N.N.N.N.N.N.N.N.N.N.N.N.N.N.[Cl-].[Cl-].[Cl-].[Cl-].[Cl-].[Cl-].[O-2].[O-2].[Ru+3].[Ru+3].[Ru+4] [Ruthenium Red]
apoptotic cell death (TUNEL) induced by hypotonic swelling (retinal ganglion cells [6]; 190 mOsm saline, Compound 1 1 uM, RuR 10 μM): block apoptotic cell death
apoptotic cell death (TUNEL) induced by the TRPV4 agonist GSK (retinal ganglion cells [6]; GSK 100 nM, Compound 1 1 uM, RuR 10 μM): block apoptotic cell death

CCCCC/C=C\C/C=C\C/C=C\C/C=C\CCCC(=O)O [arachidonic acid, reference compound]
[Ca2+]i response (Müller cells): increase in [Ca2+]i

CC(C)(C)NC[C@H](O)COc1nsnc1N1CCOCC1 [timolol, reference compound]
inhibition of IOP, curve relative to the exemplary TRPV4 antagonists (MB model of glaucoma; positive control, eye drop): left-shifted dose-response curve
